Results: the NIST ThermoML archive (doi:10.1021/je049655w)
Values joined by “and” are separate entries in the source; they are usually repeats but may differ in a detail not shown here. Identical values can stand only once.

Key:
[1] = refractive index (Na D-line) (dimensionless); details: 298.15 K; 101.33 kPa; Liquid; Standard Abbe refractometry
[2] = 100.8 kPa, Liquid
[3] = xn = mol fraction of the nth substance listed; details: 100.8 kPa, Liquid

CC(C)CC(C)(C)C [2,2,4-trimethylpentane]
Details	refractive index
[1]	1.38902

[2]
Details	mass density [kg/m3]	viscosity
298.15 K	687.8	0.474 mPa·s
308.15 K	679.5	0.422 mPa·s and 0.426 mPa·s
318.15 K	671	0.382 mPa·s

CCC(C)=O [butanone]
Details	refractive index
[1]	1.37623

[2]
Details	mass density [kg/m3]	viscosity [mPa·s]
298.15 K	799.7	0.378
308.15 K	789.2	0.341
318.15 K	778.4	0.307

CCO [ethanol]
Details	refractive index
[1]	1.35949

[2]
Details	mass density [kg/m3]	viscosity [mPa·s]
298.15 K	785.1	1.088
308.15 K	776.5	0.904
318.15 K	767.7	0.763

CCC(C)=O [butanone] + CC(C)CC(C)(C)C
[3]
Details	mass density, 298.15 K [kg/m3]	mass density, 308.15 K [kg/m3]	mass density, 318.15 K [kg/m3]	viscosity, 298.15 K [mPa·s]	viscosity, 308.15 K [mPa·s]	viscosity, 318.15 K [mPa·s]
x1 = 0.05	690.1	681.7	673.1	0.461	0.416	0.374
x1 = 0.1	692.7	684.2	675.4	0.451	0.408	0.367
x1 = 0.15	695.6	687	678.2	0.443	0.4	0.36
x1 = 0.2	698.7	690.1	681.1	0.436	0.394	0.354
x1 = 0.25	702.2	693.4	684.3	0.429	0.388	0.349
x1 = 0.3	705.9	697	687.8	0.423	0.382	0.344
x1 = 0.35	709.9	700.9	691.6	0.417	0.377	0.339
x1 = 0.4	714.1	705.1	695.7	0.412	0.372	0.335
x1 = 0.45	718.7	709.5	700.1	0.407	0.368	0.331
x1 = 0.5	723.6	714.3	704.8	0.402	0.363	0.328
x1 = 0.55	728.8	719.4	709.8	0.398	0.36	0.325
x1 = 0.6	734.5	724.9	715.3	0.394	0.356	0.322
x1 = 0.65	740.6	731	721.2	0.39	0.353	0.32
x1 = 0.7	747.2	737.4	727.5	0.387	0.35	0.317
x1 = 0.75	754.2	744.3	734.3	0.384	0.347	0.315
x1 = 0.8	761.9	751.9	741.7	0.381	0.345	0.313
x1 = 0.85	770.4	760.2	749.9	0.379	0.343	0.311
x1 = 0.9	779.3	769	758.6	0.377	0.342	0.309
x1 = 0.95	789.2	778.8	768.2	0.377	0.341	0.308
x1 = 1	799.7	789.2	778.4	0.378	0.341	0.307

CCO [ethanol] + CCC(C)=O
[3], x1 = 1
Details	mass density [kg/m3]	viscosity [mPa·s]
298.15 K	785.1	1.088
308.15 K	776.5	0.904
318.15 K	767.7	0.763
